Reference: publication PMC6440977, “Nucleoside analogue activators of cyclic AMP-independent protein kinase A of Trypanosoma” (Nature Communications, 2019)
Values joined by “and” are separate entries in the source; they are usually repeats but may differ in a detail not shown here. Equal values may be shown once. “Also recorded” adds a separate entry of the source. Read-outs that look alike come from different tables or passages of the source.

Experiments:
[1] = target: T. brucei PKA (Trypanosoma brucei brucei, UniProt Q9GU80); assay: In vivo PKA reporter assay (VASP Ser-157 phosphorylation, western blot); type: cell-based; conditions: for EC50: read-out: EC50 in vivo PKA assay, VASP reporter, 15 min treatment, mean ± SD; for % VASP phosphorylation: CpdA 10 µM, replicates; for effect on in vivo PKA activity (VASP phosphorylation), in words: wild type background;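 for % VASP phosphorylation: Phosphorylated VASP as percent of total VASP band signal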;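 for all read-outs here: T. brucei cells expressing human VASP as heterologous PKA substrate, compound exposure at 37 °C, western blot of phospho (50 kDa) versus unphosphorylated (46 kDa) VASP band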
[2] = target: T. brucei PKAR-PKAC1 holoenzyme (Trypanosoma brucei, UniProt Q9GU80); assay: biochemical; type: biochemical; conditions: for In vitro kinase assay: technical replicates
[3] = target: T. brucei PKAR(199–499) (Trypanosoma brucei, UniProt Q9GU80); assay: biochemical; type: binding; design: Thermodynamics (ITC) -TΔS / Thermodynamics (ITC) ΔG / Thermodynamics (ITC) ΔH: unit: kcal/mol
[4] = target: T1, human PKARIα (Homo sapiens, UniProt P10644); assay: Binding by isothermal titration calorimetry (ITC)
T1 construct: The full length ORFs (amplified with primers introducing the respective); 6xHis followed by TEV site (N); made in house; host or cells: E. coli Rosetta D3

[5] = tested on: T. brucei ∆pkar/∆pkar (pkar KO) cells; assay: microbe, parasite or virus in culture; type: cell-based, Trypanosoma brucei; conditions: Trypanosoma brucei, 72 h, read-out: IC50 growth pkar KO
[6] = tested on: T. brucei BSF cells (WT); assay: Alamar blue cell viability assay, wild type; conditions: Trypanosoma brucei, 72 h, read-out: IC50 growth WT;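 note: trypanosomes seeded at 5×10^3 per ml and grown 72 h with compound, then resazurin 0.5 mM added for 4 h as the viability read-out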
[7] = tested on: intracellular cAMP; assay: Cyclic AMP measurement (intracellular cAMP content); type: cell-based, Trypanosoma brucei; conditions: for pmol cAMP / 10^9 cells: independent replicates
[8] = tested on: cAMP release into the medium; assay: Fraction of cAMP in cell supernatant versus total cell lysate; conditions: CpdA treatment 10 µM, 15 min
[9] = tested on: T. brucei PKA holoenzyme (Ty1-PKAC1); type: biochemical, Trypanosoma brucei; conditions: for in vitro kinase assay [CPM] / in vitro kinase assay [CPM], PKI: 5 µM PKI(5-24); for in vitro kinase assay [CPM], PKI: control without cyclic nucleotide
[10] = tested on: T. brucei PKA holoenzyme (PKAR-Ty1); type: biochemical, Trypanosoma brucei; conditions: control without cyclic nucleotide, 5 µM PKI(5-24)
[11] = tested on: T. brucei PKA holoenzyme (HA-PKAC2); type: biochemical, Trypanosoma brucei; conditions: control without cyclic nucleotide, 5 µM PKI(5-24)

Sequence of T. brucei PKAR-PKAC1 holoenzyme (Q38DR5 entry or part of it): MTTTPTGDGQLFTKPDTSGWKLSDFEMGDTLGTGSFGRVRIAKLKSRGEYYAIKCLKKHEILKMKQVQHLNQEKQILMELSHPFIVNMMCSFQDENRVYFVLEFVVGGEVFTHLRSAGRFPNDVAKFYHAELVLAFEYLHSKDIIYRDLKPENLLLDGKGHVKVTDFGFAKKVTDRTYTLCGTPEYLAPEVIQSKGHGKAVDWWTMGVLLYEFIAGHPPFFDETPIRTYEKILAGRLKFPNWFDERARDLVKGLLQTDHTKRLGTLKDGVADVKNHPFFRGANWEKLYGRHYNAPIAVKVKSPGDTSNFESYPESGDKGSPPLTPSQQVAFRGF
Sequence of T. brucei PKAR-PKAC1 holoenzyme (Q9GU80 entry or part of it): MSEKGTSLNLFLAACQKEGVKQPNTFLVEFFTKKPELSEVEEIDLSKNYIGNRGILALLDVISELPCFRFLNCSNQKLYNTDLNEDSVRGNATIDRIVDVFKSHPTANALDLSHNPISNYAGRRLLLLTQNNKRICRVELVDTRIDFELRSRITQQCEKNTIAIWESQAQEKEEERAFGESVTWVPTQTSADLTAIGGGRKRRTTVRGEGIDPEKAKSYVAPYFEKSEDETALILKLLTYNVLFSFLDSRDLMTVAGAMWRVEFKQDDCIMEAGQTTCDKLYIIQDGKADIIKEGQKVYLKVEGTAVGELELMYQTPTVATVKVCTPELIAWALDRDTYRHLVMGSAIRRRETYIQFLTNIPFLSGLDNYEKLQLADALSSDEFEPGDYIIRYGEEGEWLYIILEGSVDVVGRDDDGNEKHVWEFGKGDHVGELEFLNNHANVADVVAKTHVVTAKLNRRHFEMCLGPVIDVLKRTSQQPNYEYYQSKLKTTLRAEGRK
Sequence of T. brucei PKAR(199–499) (Q9GU80 entry or part of it): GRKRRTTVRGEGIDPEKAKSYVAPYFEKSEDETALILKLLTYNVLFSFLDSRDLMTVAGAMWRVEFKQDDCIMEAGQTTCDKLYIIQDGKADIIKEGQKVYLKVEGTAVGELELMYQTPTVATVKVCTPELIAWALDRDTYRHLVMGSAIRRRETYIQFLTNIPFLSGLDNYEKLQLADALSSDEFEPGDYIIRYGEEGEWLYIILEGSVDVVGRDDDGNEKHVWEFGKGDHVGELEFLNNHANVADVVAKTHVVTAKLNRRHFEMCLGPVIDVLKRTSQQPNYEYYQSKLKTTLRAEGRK
Sequence of T. brucei PKA (Q38DS1 entry or part of it): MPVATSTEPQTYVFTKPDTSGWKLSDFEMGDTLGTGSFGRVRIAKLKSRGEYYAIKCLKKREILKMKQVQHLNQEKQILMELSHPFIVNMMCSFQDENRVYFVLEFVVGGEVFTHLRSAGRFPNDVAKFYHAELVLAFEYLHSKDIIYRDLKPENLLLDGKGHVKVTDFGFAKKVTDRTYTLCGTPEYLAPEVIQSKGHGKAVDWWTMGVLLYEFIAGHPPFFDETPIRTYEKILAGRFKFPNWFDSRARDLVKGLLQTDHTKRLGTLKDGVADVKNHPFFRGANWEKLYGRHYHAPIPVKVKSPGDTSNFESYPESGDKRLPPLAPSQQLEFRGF
Sequence of T. brucei PKA (Q38DR5 entry or part of it, further chain): as the sequence (Q38DR5 entry or part of it) above
T1 sequence (P10644 whole entry): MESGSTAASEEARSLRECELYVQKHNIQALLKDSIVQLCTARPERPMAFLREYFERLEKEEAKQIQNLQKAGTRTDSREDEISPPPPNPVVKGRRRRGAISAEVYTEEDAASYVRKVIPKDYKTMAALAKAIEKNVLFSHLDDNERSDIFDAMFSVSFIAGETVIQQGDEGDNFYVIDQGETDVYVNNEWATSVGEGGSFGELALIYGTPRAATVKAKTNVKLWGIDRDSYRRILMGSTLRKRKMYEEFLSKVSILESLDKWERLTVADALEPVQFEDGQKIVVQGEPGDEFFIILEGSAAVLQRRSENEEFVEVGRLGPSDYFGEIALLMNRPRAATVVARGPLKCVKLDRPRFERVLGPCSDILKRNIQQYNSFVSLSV

## Nc1ncnc2c1c(I)cn2[C@@H]1O[C@H](CO)[C@@H](O)[C@H]1O [5-I-Tu, 7-Iodo-7-deazaadenosine]
[1]
  EC50: 390 ± 20 nM
[2]
  EC50: 203 ± 79 nM
[2]; 0.001 µM
  In vitro kinase assay: 0.15 U/ml and 0.13 U/ml
[2]; 0.05 µM
  In vitro kinase assay: 0.22 U/ml and 0.25 U/ml
[2]; 0.1 µM
  In vitro kinase assay: 0.4 U/ml and 0.36 U/ml
[2]; 0.2 µM
  In vitro kinase assay: 0.45 U/ml
[2]; 0.39 µM
  In vitro kinase assay: 0.75 U/ml and 0.61 U/ml
[2]; 0.78 µM
  In vitro kinase assay: 0.77 U/ml and 0.8 U/ml
[2]; 1.56 µM
  In vitro kinase assay: 0.79 U/ml and 0.91 U/ml
[2]; 3.13 µM
  In vitro kinase assay: 0.81 U/ml and 0.96 U/ml
[3]
  Kd: 32 ± 9 nM
[3]; independent replicates
  Thermodynamics (ITC) -TΔS: 6.36 and 3.65 and 4.67
  Thermodynamics (ITC) ΔG: -10.1 and -10.5
  Thermodynamics (ITC) ΔH: -16.5 and -14.1 and -14.8
[4]
  binding to purified human PKARIα, in words: did not bind
[5]
  IC50: 346 ± 41 nM
[6]
  IC50: 330 ± 38 nM

## COc1ccc(C2=NN(C3CCCCCC3)C(=O)[C@@H]3CC=CC[C@H]23)cc1OCCCCOc1ccc(-c2nn[nH]n2)cc1 [CpdA]
[1]; 0 min
  % VASP phosphorylation: 37.2015% and 33.1548% and 30.9406%
[1]; 5 min
  % VASP phosphorylation: 28.9269% and 25.7882% and 23.4179%
[1]; 10 min
  % VASP phosphorylation: 28.8598% and 22.1225% and 21.1026%
[1]; 15 min
  % VASP phosphorylation: 26.7433% and 23.5931% and 18.9766%
[1]
  effect on in vivo PKA activity (VASP phosphorylation), in words: did not elicit any change
[7]; 10 µM, 15 min
  increase of intracellular cAMP content: up to 600 fold
  pmol cAMP / 10^9 cells: 7046.18 pmol cAMP / 10^9 cells and 6980.91 pmol cAMP / 10^9 cells and 7465.44 pmol cAMP / 10^9 cells and 6294.38 pmol cAMP / 10^9 cells and 9321.55 pmol cAMP / 10^9 cells and 2818.14 pmol cAMP / 10^9 cells
[7]; CpdA treatment 10 µM, 15 min, total cAMP content set to 100%, mean of technical replicates
  % cAMP, total, mean: 94.1035%
[7]; CpdA treatment 10 µM, 15 min, total cAMP content set to 100%, technical replicates
  % cAMP, total: 100% and 88.2071%
[7]; CpdA treatment 10 µM, 15 min, total, technical replicates
  nM cAMP, total: 1891.66 nM and 1668.58 nM
[8]; mean of technical replicates
  % cAMP, supernatant, mean: 3.201%
[8]; technical replicates
  nM cAMP, supernatant: 74.7051 nM and 46.4145 nM
[8]; total cAMP content set to 100%
  % cAMP, supernatant: 3.949% and 2.454%

## OCCN(CCO)c1nc(N2CCCCC2)c2nc(N(CCO)CCO)nc(N3CCCCC3)c2n1 [Dipyridamole]
[1]; homozygous deletion of PKAR
  induction of VASP phosphorylation in pkar knock out, in words: no induction
[1]
  EC50: 22400 ± 4200 nM
  effect on in vivo PKA activity (VASP phosphorylation), in words: dose- and time-dependent induction
[2]
  effect in the in vitro kinase assay, in words: did not have any effect; also recorded: No effect
[5]
  IC50: 16300 ± 1800 nM
[7]; 100 µM
  change of intracellular cAMP content, in words: moderate increase
[7]; 100 µM, 15 min, listed as Dip
  pmol cAMP / 10^9 cells: 61.8873 pmol cAMP / 10^9 cells and 63.0147 pmol cAMP / 10^9 cells and 44.8294 pmol cAMP / 10^9 cells and 64.5236 pmol cAMP / 10^9 cells and 80.946 pmol cAMP / 10^9 cells and 55.0958 pmol cAMP / 10^9 cells
[7]; 100 µM, 90 min, listed as Dip
  pmol cAMP / 10^9 cells: 47.769 pmol cAMP / 10^9 cells and 56.3468 pmol cAMP / 10^9 cells and 59.8493 pmol cAMP / 10^9 cells and 40.4717 pmol cAMP / 10^9 cells and 46.5418 pmol cAMP / 10^9 cells and 46.5962 pmol cAMP / 10^9 cells
[6]
  IC50: 9900 ± 1000 nM

## PKI(5–24)
[9]; Ty1-PKAC1#1
  in vitro kinase assay [CPM]: 1999.9 CPM
[9]; Ty1-PKAC1#2
  in vitro kinase assay [CPM]: 1386.5 CPM
[9]; Ty1-PKAC1-dead#11
  in vitro kinase assay [CPM]: 834.7 CPM
[9]; Ty1-PKAC1-dead#12
  in vitro kinase assay [CPM]: 571.7 CPM
[9]; Ty1-PKAC1-dead#14
  in vitro kinase assay [CPM]: 1493.5 CPM
[9]; pull down from WT cells (negative control)
  in vitro kinase assay [CPM]: 398.6 CPM
[9]; 5 µM inhibitor
  phosphorylation of kemptide, in words: inhibited
[9]; Supp Fig 3b
  in vitro kinase assay [CPM], PKI: 963.87 CPM
[9]; Supp Fig 3c
  in vitro kinase assay [CPM], PKI: 528.13 CPM
[10]
  in vitro kinase assay [CPM], PKI: 1399.6 CPM
[11]
  in vitro kinase assay [CPM], PKI: 483.2 CPM
